From patent publication US9278922B2 (ABBVIE INC., priority 2009, dated 2016)

Tested on: HCV 1b-Con-1 replicon
Test: HCV 1b-Con-1 replicon assay (luciferase reporter gene, HuH-7 cells)
Assay type: cell-based, Hepatitis C virus (HCV) genotype 1b-Con1
Conditions: Hepatitis C virus, Huh-7, luciferase reporter gene activity in the replicon, in the presence of 5% FBS

Row | SMILES | EC50 [nM]
1 | COC(=O)N[C@H](C(=O)N1CCCC[C@H]1C(=O)Nc1ccc(CN(Cc2ccc(NC(=O)[C@@H]3CCCCN3C(=O)[C@@H](NC(=O)OC)C(C)(C)C)cc2)c2ccc(F)cc2)cc1)C(C)(C)C [Example 101, methyl [(1S)-1-{[(2S)-2-{[4-({(4-fluorophenyl)[4-({[(2S)-1-{(2S)-2-[(methoxycarbonyl)amino]-3,3-dimethylbutanoyl}piperidin-2-yl]carbonyl}amino)benzyl]amino}methyl)phenyl]carbamoyl}piperidin-1-yl]carbonyl}-2,2-dimethylpropyl]carbamate] | < 1
2 | O=C(Nc1ccc(CN(Cc2ccc(NC(=O)[C@@H]3CCCN3C(=O)O[C@H]3CCOC3)cc2)c2ccccc2)cc1)[C@@H]1CCCN1C(=O)O[C@H]1CCOC1 [Example 150, di[(3S)-tetrahydrofuran-3-yl](2S,2′S)-2,2′-[(phenylimino)bis(methanediylbenzene-4,1-diylcarbamoyl)]dipyrrolidine-1-carboxylate] | 10 to 100
3 | O=C(Nc1ccc(CN(Cc2ccc(NC(=O)[C@@H]3CCCN3C(=O)C(c3ccccc3)N3CC[C@H](F)C3)cc2)c2ccc(F)cc2)cc1)[C@@H]1CCCN1C(=O)C(c1ccccc1)N1CC[C@H](F)C1 (stereo partly drawn) [Example 119, (2S,2′S)-N,N′-{[(4-fluorophenyl)imino]bis(methanediylbenzene-4,1-diyl)}bis(1-{[(3S)-3-fluoropyrrolidin-1-yl](phenyl)acetyl}pyrrolidine-2-carboxamide)] | < 1
4 | CC[C@H](NC(=O)OC)C(=O)N1CCC[C@H]1C(=O)Nc1ccc(CN(Cc2ccc(NC(=O)[C@@H]3CCCN3C(=O)[C@H](CC)NC(=O)OC)cc2)c2ccc(F)cc2)cc1 [Example 112, dimethyl ([(4-fluorophenyl)imino]bis{methanediylbenzene-4,1-diylcarbamoyl(25)pyrrolidine-2,1-diyl[(2S)-1-oxobutane-1,2-diyl]})biscarbamate] | 1 to 10
5 | CCN(C(C)C)[C@@H](C(=O)N1CCC[C@H]1C(=O)Nc1ccc(CN(Cc2ccc(NC(=O)[C@@H]3CCCN3C(=O)[C@@H](c3ccccc3)N(CC)C(C)C)cc2)c2ccc(F)cc2)cc1)c1ccccc1 [Example 132, (2S,2′S)-N,N′-{[(4-fluorophenyl)imino]bis(methanediylbenzene-4,1-diyl)}bis(1-{(2R)-2-[ethyl(1-methylethyl)amino]-2-phenylacetyl}pyrrolidine-2-carboxamide)] | < 1
6 | COC(=O)N[C@H](C(=O)N1CCC[C@H]1c1nc2ccc(CN(Cc3ccc4nc([C@@H]5CCCN5C(=O)[C@@H](NC(=O)OC)C(C)(C)O)[nH]c4c3)c3ccccc3)cc2[nH]1)C(C)(C)O [Example 34, methyl [(1S)-2-hydroxy-1-{[(2S)-2-(6-{[({2-[(2S)-1-{(2S)-3-hydroxy-2-[(methoxycarbonyl)amino]-3-methylbutanoyl}pyrrolidin-2-yl]-1H-benzimidazol-6-yl}methyl)(phenyl)amino]methyl}-1H-benzimidazol-2-yl)pyrrolidin-1-yl]carbonyl}-2-methylpropyl]carbamate] | < 1
7 | COC(=O)N[C@H](C(=O)N1CCC[C@H]1C(=O)Nc1ccc(CN(Cc2ccc(NC(=O)[C@@H]3CCCN3C(=O)[C@H](NC(=O)OC(C)(C)C)c3ccccc3)cc2)c2ccccc2)cc1)C(C)(C)C [Example 74, N-(methoxycarbonyl)-3-methyl-L-valyl-N-(4-{[{4-[(1-{(2R)-2-[(tert-butoxycarbonyl)amino]-2-phenylacetyl}-L-prolyl)amino]benzyl}(phenyl)amino]methyl}phenyl)-L-prolinamide] | < 1
8 | COC(=O)N[C@H](C(=O)N1CC=C[C@H]1C(=O)Nc1ccc(CN(Cc2ccc(NC(=O)[C@@H]3C=CCN3C(=O)[C@@H](NC(=O)OC)C(C)(C)C)cc2)c2ccc(F)cc2)cc1)C(C)(C)C [Example 125, methyl [(1S)-1-{[(2S)-2-{[4-({(4-fluorophenyl)[4-({[(2S)-1-{(2S)-2-[(methoxycarbonyl)amino]-3,3-dimethylbutanoyl}-2,5-dihydro-1H-pyrrol-2-yl]carbonyl}amino)benzyl]amino}methyl)phenyl]carbamoyl}-2,5-dihydro-1H-pyrrol-1-yl]carbonyl}-2,2-dimethylpropyl]carbamate] | < 1
9 | COC(=O)N[C@H](C(=O)N1CCC[C@H]1C(=O)Nc1cccc(CN(Cc2cccc(NC(=O)[C@@H]3CCCN3C(=O)[C@@H](NC(=O)OC)C(C)(C)C)c2)c2ccc(F)cc2)c1)C(C)(C)C [Example 143, dimethyl ([(4-fluorophenyl)imino]bis{methanediylbenzene-3,1-diylcarbamoyl(2S)pyrrolidine-2,1-diyl[(2S)-3,3-dimethyl-1-oxobutane-1,2-diyl]})biscarbamate] | < 1
10 | COC(=O)N[C@H](C(=O)N1CCC[C@H]1C(=O)Nc1ccc(CN(Cc2ccc(NC(=O)[C@@H]3CCCN3C(=O)[C@@H](NC(=O)OC)C(C)(C)C)cc2)c2ccccc2)cc1)[C@H]1CCOC1 [Example 53, N-(methoxycarbonyl)-3-methyl-L-valyl-N-(4-{[{4-[(1-{(2S)-2-[(methoxycarbonyl)amino]-2-[(3R)-tetrahydrofuran-3-yl]acetyl}-L-prolyl)amino]benzyl}(phenyl)amino]methyl}phenyl)-L-prolinamide] | < 1
11 | COC(=O)N[C@H](C(=O)N1CC(F)(F)C[C@H]1C(=O)Nc1ccc(CN(Cc2ccc(NC(=O)[C@@H]3CC(F)(F)CN3C(=O)[C@@H](NC(=O)OC)C(C)(C)C)cc2)c2ccccc2)cc1)C(C)(C)C [Example 73] | < 1
12 | CCN(CC)[C@@H](C(=O)N1CCC[C@H]1c1nc2cc(CN(Cc3ccc4[nH]c([C@@H]5CCCN5C(=O)[C@@H](c5ccccc5)N(CC)CC)nc4c3)c3ccc(F)cc3)ccc2[nH]1)c1ccccc1 [Example 95, N,N-bis[(2-{(2S)-1-[(2R)-2-(diethylamino)-2-phenylacetyl]pyrrolidin-2-yl}-1H-benzimidazol-5-yl)methyl]-4-fluoroaniline] | < 1
13 | COC(=O)N[C@@H](C)C(=O)N1CCC[C@H]1C(=O)Nc1ccc(CN(Cc2ccc(NC(=O)[C@@H]3CCCN3C(=O)[C@H](C)NC(=O)OC)cc2)c2ccc(F)cc2)cc1 [Example 15] | 1 to 10
14 | O=C(Nc1ccc(CN(Cc2ccc(NC(=O)[C@@H]3CCCN3C(=O)C(c3ccccc3)C3(O)CCCC3)cc2)c2ccc(F)cc2)cc1)[C@@H]1CCCN1C(=O)C(c1ccccc1)C1(O)CCCC1 (stereo partly drawn) [Example 106, (2S ,2′S)-N,N′-{[(4-fluorophenyl)imino]bis(methanediylbenzene-4,1-diyl)}bis{1-[(1-hydroxycyclopentyl)(phenyl)acetyl]pyrrolidine-2-carboxamide}] | < 1
15 | O=C(Nc1ccc(CN(Cc2ccc(NC(=O)[C@@H]3CCCN3C(=O)[C@@H](c3ccccc3)N3CCCC3)cc2)c2ccccc2)cc1)[C@@H]1CCCN1C(=O)[C@@H](c1ccccc1)N1CCCC1 [Example 55, (2S,2′S)-N,N′-[(phenylimino)bis(methanediylbenzene-4,1-diyl)]bis{1-[(2R)-2-phenyl-2-pyrrolidin-1-ylacetyl]pyrrolidine-2-carboxamide}] | < 1
16 | CCN[C@@H](C(=O)N1CCC[C@H]1C(=O)Nc1ccc(CN(Cc2ccc(NC(=O)[C@@H]3CCCN3C(=O)[C@H](NCC)c3ccccc3)cc2)c2ccc(F)cc2)cc1)c1ccccc1 [Example 131, (2S,2′S)-N,N′-{[(4-fluorophenyl)imino]bis(methanediylbenzene-4,1-diyl)}bis{1-[(2R)-2-(ethylamino)-2-phenylacetyl]pyrrolidine-2-carboxamide}] | < 1
17 | CCC(CC)[C@H](NC(=O)OC)C(=O)N1CCC[C@H]1C(=O)Nc1ccc(CN(Cc2ccc(NC(=O)[C@@H]3CCCN3C(=O)[C@@H](NC(=O)OC)C(CC)CC)cc2)c2ccc(F)cc2)cc1 [Example 135] | 1 to 10
18 | COC(=O)N[C@H](C(=O)N1C[C@@H](F)C[C@H]1C(=O)Nc1ccc(CN(Cc2ccc(NC(=O)[C@@H]3C[C@H](F)CN3C(=O)[C@@H](NC(=O)OC)C(C)(C)C)cc2)c2ccccc2)cc1)C(C)(C)C [Example 94] | 1 to 10
